# Results reported in patent US4536396A, “Synergistic sweetening compositions” (Pfizer Inc., priority 1983, dated 1985).
# Tests used:
# [1] = cited from earlier work
# [2] = Taste quality and sweetening potency in typically prepared edible products (Table III)
# From the text: The ultimate compositions for edible use, or for use as oral hygienic products or as formulated medicinal agents, are readily prepared, using methods generally known in the food technology and pharmaceutical arts. The taste quality of such typically prepared edible products prepared with sucrose, with AS-K alone and with one of present combinations as sweetening agent are summarized in Table III.
# [3] = Sensory analysis of relative sweetness intensity and taste quality of aqueous solutions compared with sucrose solutions
# Experimental: The relative sweetness intensity and quality of CP-54,802, AS-K and mixtures of CP-54,802 and AS-K were determined by sensory analysis. These determinations were carried out in a facility designed for controlled tasting, flavor research and evaluation of food additives, including a separate preparation room and individual tasting booths with complete air-conditioning, controlled lighting, running water and a sink for expectoration.
# Aqueous solutions of sucrose were prepared at concentrations (w/w) of 2, 3, 4, 5, 6, 7, 8, 9, 10, 11 and 12% along with a sample of one of the test compounds at the levels specified in the test experiments. A beaker containing a solution of the test compound identified only by a coded digit was submitted to the taster by a co-worker along with a beaker containing the above sucrose solutions. The sweetness intensity of the test compound was compared with one or more of the sucrose control solutions to determine whether that particular sucrose reference sample was of lesser, greater or equal sweetness. The taste quality of the test sample was then characterized by comparison with the sucrose solution. In some instances a reference aqueous solution containing either CP-54,802 and/or AS-K alone was also used to characterize the taste quality of mixture of CP-54,802 and AS-K.
# After selecting the particular sucrose solution equal in sweetness to the AS-K solution, subsequent test comparisons of the AS-K and sucrose solution at closest sweetness intensity were performed to recheck the intensity value and to characterize the taste quality of the AS-K. By this means, the following results were obtained: […]
# [4] = at 2% sucrose equivalent in water
# [5] = at 3% sucrose equivalent in water
# [6] = at 4% sucrose equivalent in water
# [7] = at 5% sucrose equivalent in water
# [8] = at 6% sucrose equivalent in water
# [9] = at 7% sucrose equivalent in water, AS-K values above 6% only approximate
# [10] = at 8% sucrose equivalent in water, AS-K values above 6% only approximate
# [11] = at 9% sucrose equivalent in water, AS-K values above 6% only approximate
# [12] = at 10% sucrose equivalent in water, AS-K values above 6% only approximate
# [13] = compared to 10% sucrose in water
# [14] = equal in sweetness to 2% sucrose (w/w) in water
# [15] = equal in sweetness to 3% sucrose (w/w) in water
# [16] = equal in sweetness to 4% sucrose (w/w) in water
# [17] = equal in sweetness to 5% sucrose (w/w) in water
# [18] = equal in sweetness to 6% sucrose (w/w) in water
# [19] = equal in sweetness to 7% sucrose (w/w) in water
# [20] = equal in sweetness to 8% sucrose (w/w) in water
# [21] = equal in sweetness to 9% sucrose (w/w) in water
# [22] = equal in sweetness to 10% sucrose (w/w) in water
SMILES,Potency of Sweetening Agent in Product ([2]; 7-Up-type carbonated drink),Potency of Sweetening Agent in Product ([2]; Cola carbonated drink),Potency of Sweetening Agent in Product ([2]; Lemonade drink),Potency of Sweetening Agent in Product ([2]; Orange gelatin dessert),Potency of Sweetening Agent in Product ([2]; Peppermint hard candy),Potency of Sweetening Agent in Product ([2]; Strawberry drink),Potency of Sweetening Agent in Product ([2]; Vanilla cakes),Potency of Sweetening Agent in Product ([2]; Vanilla frozen dessert),Potency of Sweetening Agent in Product ([2]; Vanilla pudding),"Potency Sucrose = 1 [3, 4]","Potency Sucrose = 1 [3, 5]","Potency Sucrose = 1 [3, 6]","Potency Sucrose = 1 [3, 7]","Potency Sucrose = 1 [3, 8]","Potency Sucrose = 1 [3, 9]","Potency Sucrose = 1 [3, 10]","Potency Sucrose = 1 [3, 11]","Potency Sucrose = 1 [3, 12]","Equivalent Concentration % [3, 14] [%]","Equivalent Concentration % [3, 15] [%]",other results
"CC1=CC(=O)NS(=O)(=O)O1 [AS-K, 6-Methyl-1,2,3-oxathiazin-4(3H)-one-2,2-dioxide]",< 90,90,< 90,< 90,< 90,< 90,90,< 90,< 90,250 Sucrose = 1,200 Sucrose = 1,160 Sucrose = 1,110 Sucrose = 1,90 Sucrose = 1,90 Sucrose = 1,90 Sucrose = 1,85 Sucrose = 1,80 Sucrose = 1,0.0080,0.0150,"Sweetness relative to cane sugar ([1]; in water at concentrations equivalent in sweetness to a 4% solution of cane sugar): 130; Concentration equivalent to 4% cane sugar ([1]; in water): 0.031%; Relative sweetness ([3]; at concentrations equivalent to 6-10% sucrose): ≤ 90; Concentration (g/100 ml) ≡ 10% Sucrose [3, 13]: 0.1250 g/100 ml; Potency of Mixture [3, 13]: 80; Equivalent Concentration % [3, 16]: 0.0250%; Equivalent Concentration % [3, 17]: 0.0455%; Equivalent Concentration % [3, 18]: 0.0667%; Equivalent Concentration % [3, 19]: 0.0777%; Equivalent Concentration % [3, 20]: 0.0889%; Equivalent Concentration % [3, 21]: 0.1059%; Equivalent Concentration % [3, 22]: 0.1250%"
"C[C@@H](NC(=O)[C@@H](N)CC(=O)O)C(=O)NC1C(C)(C)SC1(C)C [CP-54,802, 3-(L-Aspartyl-D-alaninamido)-2,2,4,4-tetramethylthietane]",–,–,–,–,–,–,–,–,–,"2,900 Sucrose = 1","2,850 Sucrose = 1","2,800 Sucrose = 1","2,500 Sucrose = 1","2,300 Sucrose = 1","2,250 Sucrose = 1","2,112 Sucrose = 1","2,075 Sucrose = 1","2,000 Sucrose = 1",0.00069,0.00105,"Equivalent Concentration % [3, 16]: 0.00143%; Equivalent Concentration % [3, 17]: 0.002%; Equivalent Concentration % [3, 18]: 0.0026%; Equivalent Concentration % [3, 19]: 0.0031%; Equivalent Concentration % [3, 20]: 0.00378%; Equivalent Concentration % [3, 21]: 0.0043%; Equivalent Concentration % [3, 22]: 0.005%"
"OC[C@H]1O[C@@](CO)(O[C@H]2O[C@H](CO)[C@@H](O)[C@H](O)[C@H]2O)[C@@H](O)[C@@H]1O [Sucrose, reference compound]",1,1,1,1,1,1,1,1,1,–,–,–,–,–,–,–,–,–,–,–,–
